{"source": "paper PMC2908602", "about": "“Placental transfer of the polybrominated diphenyl ethers BDE-47, BDE-99 and BDE-209 in a human placenta perfusion system: an experimental study” (Environmental Health, 2010)", "key": {"human placenta [1]": {"test_system": "human placenta", "method": "The study was approved by the regional Ethics Committee (KF 01-145/03 + KF(11) 260063) and the Data Protection Agency. All mothers gave informed written consent. […] The placentas were injected with a Krebs Ringer buffer containing heparin (5000 IU/ml, 5 ml/l medium) to prevent any remaining blood in fetal vessels from coagulating. The perfusions were performed in a dual perfusion system as previously described. […] Next, the lobule containing the perfused cotyledon was cut from the placenta (9 cm diameter) and placed in the perfusion chamber. The maternal circulation was connected by blunt cannulation of the intervillous space surrounding the perfused cotyledon. The perfusion media (100 mL each in fetal and maternal reservoirs) were circulated by peristaltic pumps and consisted of Krebs Ringer Buffer containing heparin (5000 IU/mL, Copenhagen University Hospital Pharmacy, 5 mL/L medium), glucose (0.6 g/100 mL), Pen-Strep (1% Substrate department standard solution, Panum Institute Copenhagen) and physiological levels of Human Serum Albumin (20% solution, CSL Behring Gmbh, dialysed in Krebs Ringer Buffer, maternal reservoir: 30 g/L; fetal reservoir: 40 g/L) and gassed with 95% O2/5% CO2 and 95% N2/5% CO2 in the maternal and fetal reservoirs, respectively. […] After at least 30 minutes of pre-perfusion to stabilise temperature and oxygen content, BDE-47, BDE-99 and BDE-209 (Cambridge Isotopes Laboratories, 1 μg/mL in ethanol, 100 μL added; final concentration of 1 ng/mL) and the positive control substance antipyrine dissolved in H2O (Aldrich-Chemie, Germany; final concentration of 100 μg/mL) were added to the maternal reservoir. The applied concentrations of PBDEs were a compromise between achieving final levels relatively close to in vivo levels and having a detection frequency close to 100%. […] The perfusions were run for four hours, and 6 mL were sampled at t = 0 from the maternal circulation and from both reservoirs before addition of the compounds and at 2, 30, 60, 130, 190 and 240 minutes after addition of the compounds. The sampled volume was not replaced.\nThe pH (7.2-7.4), glucose and lactate concentrations (glucose > 6 mM), and O2 tension in the maternal perfusion medium (30-35 kPa), in the fetal perfusion medium (10-15 kPa), and in the fetal venous outflow (15-20 kPa) were measured every 30 minutes using an ABL5 blood gas analyser (Radiometer, Denmark). Adjustments were made using 1 M HCl or 1 M NaOH to adjust pH, glucose solution (2,61 g/L) and increasing or decreasing the rate of 95% N2/5% CO2 gassing in the fetal perfusate or 95% O2/5% CO2 gassing in the maternal perfusate to adjust pO2 after each measurement.\nIn addition to the perfusion samples, the three PBDE congeners were analysed in umbilical cord blood and in the placental tissue before and after the perfusion. Samples of umbilical cord blood were taken if possible and processed to collect plasma. Subsamples of the placental tissue were taken before perfusion as well as from the cotyledon and the surrounding tissue after perfusion. Prior to placenta perfusions, adsorption tests had been performed: The chambers and tubes were perfused without placental tissue to investigate loss of substance during the perfusion, for instance through adsorption to the perfusion system."}, "human placenta [2]": {"test_system": "human placenta", "settings": "cited from earlier work"}, "[3]": {"design": "species or system human", "settings": "in vivo", "method": "Total lipid content in placental tissue was determined according to Smedes (1999), while enzymatic lipid determination of triglyceride and cholesterol was performed on the plasma samples and total lipid was calculated as described by Covaci et al (2006)."}, "[4]": {"design": "method as in PMID 11999784", "settings": "cited from earlier work"}, "[5]": {"settings": "in vivo; cited from earlier work"}}, "note": "Where two headings read alike, the source gives them in different places.", "data": [{"smiles": "Cc1cc(=O)n(-c2ccccc2)n1C", "note": "[antipyrine, reference compound]", "values": [{"measurement": "FM-ratio at 190 min", "setting": "human placenta [1]; 190 min, 100 µg/mL", "result": 1.04}, {"measurement": "indicative permeability coefficient (IPC)", "setting": "human placenta [2]", "result": 0.94, "unit": "h⁻¹"}]}, {"smiles": "c1ccc2c(c1)cc1ccc3cccc4ccc2c1c34", "note": "[benzo(a)pyrene]", "values": [{"measurement": "indicative permeability coefficient (IPC)", "setting": "human placenta [2]; human placenta perfusion", "result": 0.08, "unit": "h⁻¹"}]}, {"smiles": "Brc1c(Br)c(Br)c(Oc2c(Br)c(Br)c(Br)c(Br)c2Br)c(Br)c1Br", "note": "[BDE-209, decabromo diphenyl ether]", "values": [{"measurement": "Cotyledon (perfused tissue) level", "setting": "human placenta [1]; 4 h, 1 ng/mL", "result": "107.8 (64.2-159.5) ng/g lw"}, {"measurement": "Surrounding placental tissue level", "setting": "human placenta [1]; 4 h, 1 ng/mL", "result": "22.2 (16.3-31.8) ng/g lw"}, {"measurement": "concentration in perfused cotyledon relative to background", "setting": "human placenta [1]; 4 h, 1 ng/mL", "result": 20, "unit": "times"}, {"measurement": "concentration in surrounding tissue relative to background", "setting": "human placenta [1]; 4 h, 1 ng/mL", "result": 100, "unit": "times"}, {"measurement": "mass balance: amount unaccounted for (system adsorption)", "setting": "human placenta [1]; 4 h, 1 ng/mL", "result": -8, "unit": "%"}, {"measurement": "mass balance: fraction of added amount in cotyledon", "setting": "human placenta [1]; 4 h, 1 ng/mL", "result": 24, "unit": "%"}, {"measurement": "mass balance: fraction of added amount in fetal circulation", "setting": "human placenta [1]; 4 h, 1 ng/mL", "result": 0, "unit": "%"}, {"measurement": "mass balance: fraction of added amount in maternal circulation", "setting": "human placenta [1]; 4 h, 1 ng/mL", "result": 27, "unit": "%"}, {"measurement": "mass balance: fraction of added amount in surrounding placental tissue", "setting": "human placenta [1]; 4 h, 1 ng/mL", "result": 19, "unit": "%"}, {"measurement": "mass balance: fraction of added amount removed by sampling", "setting": "human placenta [1]; 4 h, 1 ng/mL", "result": 38, "unit": "%"}, {"measurement": "Non-perfused placental tissue level", "setting": "[3]", "result": "< LOQ"}, {"measurement": "Umbilical cord plasma level", "setting": "[3]", "result": "< LOQ"}, {"measurement": "logKow", "setting": "[4]", "result": "≥ 10"}, {"measurement": "median level in placental tissue", "setting": "[5]", "result": 1.14, "unit": "ng/g lw"}, {"measurement": "observed blood levels, Denmark", "setting": "[5]", "result": "~ 0.014 ng/ml"}, {"measurement": "observed blood levels, elsewhere", "setting": "[5]", "result": "0.009 to 0.15", "unit": "ng/mL"}]}, {"smiles": "O=C(O)CNCP(=O)(O)O", "note": "[glyphosate]", "values": [{"measurement": "indicative permeability coefficient (IPC)", "setting": "human placenta [2]; perfused in the same human placenta model", "result": 0.11, "unit": "h⁻¹"}]}, {"smiles": "Cn1c(=O)c2c(ncn2C)n(C)c1=O", "note": "[caffeine]", "values": [{"measurement": "indicative permeability coefficient (IPC)", "setting": "human placenta [2]; not told", "result": 1.03, "unit": "h⁻¹"}]}]}
